Read-outs that look alike come from different tables or passages of the source.
Columns and labels:
Mnk1 = Mnk1 (Homo sapiens (Human), UniProt Q9BUB5); assay: Mnk1 kinase inhibition, ADP-Glo ADP monitoring assay; type: biochemical
Experimental: (§1) The synthesized compounds then were tested for inhibition of the kinase activity (IC50) of Mnk1 and/or Mnk2 using the ADP monitoring assay for kinases described in Zegzouti, H.; Zdanovskaia, M.; Hsiao, K.; Goueli, S. A., ADP-Glo: A Bioluminescent and homogeneous ADP monitoring assay for kinases.

Mnk2 = Mnk2 (Homo sapiens (Human), UniProt Q9HBH9); assay: Mnk2 kinase inhibition, ADP-Glo ADP monitoring assay; type: biochemical
Experimental: as §1

[1] = ADP-Glo kinase assay, read-out: Mnk2 IC50
[2] = read-out: Mnk1 inhibition IC50 (+,++,+++)
[3] = ADP-Glo kinase assay, read-out: Mnk2 inhibition IC50 (+,++,+++)
[4] = unit inferred, read-out: Mnk1 IC50
[5] = ADP-Glo kinase assay, unit inferred, read-out: Mnk2 IC50

Chain of Mnk1 (Q9BUB5 whole entry): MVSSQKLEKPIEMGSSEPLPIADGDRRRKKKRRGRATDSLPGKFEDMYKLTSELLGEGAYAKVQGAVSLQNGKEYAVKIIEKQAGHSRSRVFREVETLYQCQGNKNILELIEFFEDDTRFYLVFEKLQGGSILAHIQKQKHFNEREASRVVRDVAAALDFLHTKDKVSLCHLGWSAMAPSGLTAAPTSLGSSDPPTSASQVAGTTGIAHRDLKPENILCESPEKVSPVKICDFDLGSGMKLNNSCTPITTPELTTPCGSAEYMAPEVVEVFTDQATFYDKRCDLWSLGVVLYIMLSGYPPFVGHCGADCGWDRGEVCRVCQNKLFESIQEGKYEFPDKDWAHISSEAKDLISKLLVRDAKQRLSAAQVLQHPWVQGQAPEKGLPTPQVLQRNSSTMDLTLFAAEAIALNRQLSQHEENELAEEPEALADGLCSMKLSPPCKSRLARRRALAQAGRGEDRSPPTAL
Chain of Mnk2 (Q9HBH9 whole entry): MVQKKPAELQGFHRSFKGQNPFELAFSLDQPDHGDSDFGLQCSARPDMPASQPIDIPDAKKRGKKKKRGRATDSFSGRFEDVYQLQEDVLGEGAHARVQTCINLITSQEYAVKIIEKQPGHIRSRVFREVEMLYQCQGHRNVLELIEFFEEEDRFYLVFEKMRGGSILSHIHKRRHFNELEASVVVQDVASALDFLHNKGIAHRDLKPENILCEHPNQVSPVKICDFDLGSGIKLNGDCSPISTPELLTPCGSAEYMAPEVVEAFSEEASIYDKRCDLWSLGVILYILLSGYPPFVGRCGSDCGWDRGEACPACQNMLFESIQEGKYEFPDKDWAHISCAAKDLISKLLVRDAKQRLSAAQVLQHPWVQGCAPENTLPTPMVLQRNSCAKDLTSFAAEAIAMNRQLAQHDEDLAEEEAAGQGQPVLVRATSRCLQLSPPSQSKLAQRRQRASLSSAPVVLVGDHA

Compound | IC50 (Mnk1; read-out: Mnk1 IC50) [µM] | IC50 (Mnk2; [1]) [µM] | IC50 (Mnk1; [2]) [µM] | IC50 (Mnk2; [3]) [µM] | further results
FC(F)(F)c1cc(NC(=S)Nc2nccc(-n3cnc4ccccc43)n2)cc(C(F)(F)F)c1 [NUCC-0176363] | – | – | – | – | Mnk1 IC50 (Mnk1): no activity; Mnk2 IC50 (Mnk2; ADP-Glo kinase assay): no activity
c1ccc2c(c1)cnn2-c1ccnc(NCCc2ccncc2)n1 [NUCC-0176346] | 5.4 | 4.7 | – | – | –
Cc1cc2ncn(-c3nc(NCCc4ccncc4)ncc3Cl)c2cc1C [NUCC-0200797] | – | – | > 10 | < 1 | –
O[C@H](c1ccccc1)[C@@H](Nc1nccc(-n2cnc3ccccc32)n1)c1ccccc1 [NUCC-0196257] | – | – | – | – | IC50 (Mnk1; [4]): 1.3 µM; IC50 (Mnk2; [5]): 0.31 µM
N#Cc1cnc(NCCc2ccncc2)nc1-n1nnc2ccccc21 [NUCC-0200802] | – | – | > 10 | > 10 | –
c1ccc2c(c1)NCCN2c1ccnc(NCCc2ccncc2)n1 [NUCC-0175722] | 1.2 | 0.25 | – | – | –
O=[N+]([O-])c1ccc(NCCNc2nccc(-n3cnc4ccccc43)n2)nc1 [NUCC-0176365] | 7.4 | 2.1 | – | – | –
CNC(=O)c1ccc(Nc2nccc(-n3cnc4ccccc43)n2)cc1 [NUCC-0125596] | 0.2 | 0.034 | – | – | –
O=C(NC1CC1)c1cc(-n2cnc3ccccc32)nc(NCCc2ccncc2)n1 [NUCC-0196234] | – | – | – | – | IC50 (Mnk1; [4]): > 10 µM; IC50 (Mnk2; [5]): 5.4 µM
c1ccc2c(c1)ccn2-c1cc(NCCc2ccncc2)ncn1 [NUCC-0176285] | 4.7 | 6 | – | – | –
Cc1ccc2c(c1)ncn2-c1ncc(Cl)c(NCCc2ccncc2)n1 [NUCC-0200909] | – | – | < 1 | < 1 | –
NC(=O)c1cc(-n2cnc3ccccc32)nc(NCCc2ccncc2)n1 [NUCC-0196265] | – | – | – | – | IC50 (Mnk1; [4]): 1.6 µM; IC50 (Mnk2; [5]): 0.89 µM
c1cncc(CCNc2nccc(-n3cnc4ccccc43)n2)c1 [NUCC-0176340] | 0.55 | 0.069 | – | – | –
c1ccc2c(c1)ncn2-c1ccnc(NCCc2ccncc2)c1 [NUCC-0196262] | – | – | – | – | IC50 (Mnk1; [4]): 1.3 µM; IC50 (Mnk2; [5]): 1.2 µM
O=C1CCCN1CCCNc1ccnc(-n2cnc3ccccc32)n1 [NUCC-0176345] | 10 | 2.6 | – | – | –
c1ccc2c(c1)ncn2-c1nccc(NCCc2c[nH]c3ccccc23)n1 [NUCC-0196261] | – | – | – | – | IC50 (Mnk1; [4]): 0.92 µM; IC50 (Mnk2; [5]): 0.11 µM
Nc1cc(-n2cnc3ccccc32)nc(NCCc2ccncc2)n1 [NUCC-0196307] | – | – | – | – | IC50 (Mnk1; [4]): 0.87 µM; IC50 (Mnk2; [5]): 0.17 µM
Clc1cnc(NCCc2ccncc2)nc1-n1ccc2c(Cl)ncnc21 [NUCC-0200911] | – | – | > 10 | > 10 | –
COc1cccc(-n2cc(-c3ccnc(NCCc4ccncc4)c3)cn2)c1 [NUCC-0125601] | 5 | 1.7 | – | – | –
O=C(Nc1ccccc1)Nc1nccc(-n2cnc3ccccc32)n1 [NUCC-0176351] | – | – | – | – | Mnk1 IC50 (Mnk1): no activity; Mnk2 IC50 (Mnk2; ADP-Glo kinase assay): no activity

The next lines start with results.

IC50 (Mnk1; read-out: Mnk1 IC50) [µM] | IC50 (Mnk2; [1]) [µM] | IC50 (Mnk1; [2]) [µM] | IC50 (Mnk2; [3]) [µM] | Compound | further results
0.39 | 0.063 | – | – | OC1CCC(Nc2nccc(-n3cnc4ccccc43)n2)CC1 (centres unmarked) [NUCC-0176166] | –
– | – | < 1 | < 1 | N#Cc1cnc(OCc2ccccn2)nc1-n1cnc2ccccc21 [NUCC-0200902] | –
– | – | < 1 | – | NC1CC(Oc2ncc(C(F)(F)F)c(-n3cnc4ccccc43)n2)C1 (centres unmarked) [NUCC-0201663] | IC50 (Mnk2): 1 to 10 µM
– | – | < 1 | < 1 | NC1CC(Oc2nc(-n3cnc4ccccc43)c3ccccc3n2)C1 (centres unmarked) [NUCC-0201894] | –
– | – | 1 to 10 | – | NC1CCN(c2ncc(Cl)c(-n3cnc4ccccc43)n2)C1 (centres unmarked) [NUCC-0201006] | IC50 (Mnk2): 1 to 10 µM
– | – | < 1 | < 1 | Fc1cccc(CCOc2ncc(Cl)c(-n3cnc4ccccc43)n2)c1 [NUCC-0201906] | –
– | – | 1 to 10 | – | Cc1nc2ccccc2n1-c1nc(OC2CC(N(C)C)C2)ncc1Cl (centres unmarked) [NUCC-0201016, 3-((5-chloro-4-(2-methyl-1H-benzo[d]imidazol-1-yl)pyrimidin-2-yl)oxy)-N,N-dimethylcyclobutanamine] | IC50 (Mnk2): 1 to 10 µM
– | – | < 1 | < 1 | c1ccc2c(c1)ncn2-c1nc(OC2CCNC2)ncc1-c1ccsc1 (centres unmarked) [NUCC-0201902] | –
4.1 | 1.4 | – | – | Nc1ccnc(-n2cnc3ccccc32)n1 [NUCC-0176349] | –
– | – | < 1 | < 1 | CC(C)(COc1nc(-n2cnc3ccccc32)ncc1Cl)c1ccnc(F)c1 [NUCC-0201920] | –
– | – | 1 to 10 | < 1 | N#Cc1cnc(OC2CC(N)C2)nc1-n1cnc(-c2ccc(Cl)c(Cl)c2)c1 (centres unmarked) [NUCC-0201248] | –
0.45 | 0.13 | – | – | OCCNc1ncc(Cl)c(-n2cnc3ccccc32)n1 [NUCC-0176358] | –
0.65 | 0.17 | – | – | OCCNc1nccc(-n2cnc3ccccc32)n1 [NUCC-0176352] | –
– | – | < 1 | < 1 | N#Cc1cnc(OCc2cccnc2)nc1-n1cnc2ccccc21 [NUCC-0200903] | –

Source: US10851082B2, “Substituted aromatic n-heterocyclic compounds as inhibitors of mitogen-activated protein kinase interacting kinase 1 (MNK1) and 2 (MNK2)” (Northwestern University, priority 2015, dated 2020)
